± gives the standard deviation of the averaged measurements.
What was measured:
Test in all cases: level (log10 ratio to DMSO vehicle control); higher = higher biomarker level / cell amount than vehicle control
[1] = compound: O=C(O)C=C(C(F)(F)F)C(F)(F)F [3,3-Bis(trifluoromethyl)-2-propenoic acid] (in DMSO)
Experimental: (§1)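 BioMAP Diversity Plus panel of 12 human primary cell co-culture systems (3C, 4H, LPS, SAg, BT, BF4T, BE3C, CASM3C, HDF3CGF, KF3CT, MyoF, Mphg). Compounds were added 1 h before stimulation and left for 24 h (MyoF 48 h; BT 72 h for soluble read-outs or 6 d for IgG). Biomarkers were read by ELISA, cytotoxicity by SRB, PBMC viability and proliferation by Alamar Blue. Each well value was divided by the mean of 8 DMSO control wells on the same plate and log10 transformed; duplicate blinded samples were tested at 4 concentrations.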

[2] = compound: O=C(O)CCC(F)(C(F)(F)F)C(F)(F)F [4,4-bis(Trifluoromethyl)-4-fluoropropanoic acid] (in DMSO)
Experimental: as §1

[3] = compound: O=C(O)C(F)(F)C(F)(F)C(F)(F)OC(F)(F)F [Perfluoro(4-methoxybutanoic) acid] (in DMSO)
Experimental: as §1

[4] = compound: OCCC(F)(F)C(F)(F)C(F)(F)C(F)(F)F [4:2 Fluorotelomer alcohol] (in DMSO)
Experimental: as §1

[5] = compound: O=C(O)C(F)(OC(F)(F)C(F)(OC(F)(F)C(F)(OC(F)(F)C(F)(F)C(F)(F)F)C(F)(F)F)C(F)(F)F)C(F)(F)F [Perfluoro-(2,5,8-trimethyl-3,6,9-trioxadodecanoic)acid] (in DMSO)
Experimental: as §1

[6] = compound: OCC(F)(F)C(F)(F)C(F)(F)C(F)(F)C(F)(F)C(F)(F)CO [1H,1H,8H,8H-Perfluorooctane-1,8-diol] (in DMSO)
Experimental: as §1

Test System	level (log10) ([1]; 6700 nM)	level (log10) ([1]; 20000 nM)	level (log10) ([1]; 60000 nM)	level (log10) ([2]; 6700 nM)	level (log10) ([2]; 20000 nM)	level (log10) ([2]; 60000 nM)	level (log10) ([3]; 6700 nM)	level (log10) ([3]; 20000 nM)	level (log10) ([3]; 60000 nM)	level (log10) ([4]; 6700 nM)	level (log10) ([4]; 20000 nM)	level (log10) ([4]; 60000 nM)	level (log10) ([5]; 1100 nM)	level (log10) ([5]; 3300 nM)	level (log10) ([5]; 10000 nM)	level (log10) ([6]; 6700 nM)	level (log10) ([6]; 20000 nM)	level (log10) ([6]; 60000 nM)
HDF3CGF:CCL2/MCP-1	-0.0775 ± 0.052	-0.0935 ± 0.056	-0.084 ± 0.028	-0.014 ± 0.016	-0.01 ± 0.017	0.005 ± 0.0042	0.0035 ± 0.035	0.012 ± 0.018	0.019 ± 0.064	-0.0305 ± 0.08	-0.043 ± 0.027	-0.0315 ± 0.052	-0.0035 ± 0.016	-0.0365 ± 0.005	-0.01 ± 0.0042	-0.012	-0.0175 ± 0.015	-0.0185 ± 0.016
HDF3CGF:CD54/ICAM-1	0.033 ± 0.035	0.032 ± 0.027	0.0555 ± 0.021	0.006 ± 0.0099	-0.009 ± 0.041	-0.0025 ± 0.005	-0.0185 ± 0.0078	-0.0275 ± 0.0064	-0.0215 ± 0.0092	-0.0095 ± 0.019	-0.0255 ± 0.0035	-0.0285 ± 0.005	-0.001 ± 0.0057	-0.0015 ± 0.012	0.011 ± 0.031	-0.01 ± 0.0099	0.009 ± 0.0099	0.019 ± 0.0014
MyoF:SRB	0.0005 ± 0.012	-0.005 ± 0.0014	-0.024 ± 0.0071	-0.004 ± 0.0028	-0.003 ± 0.0014	0.0025 ± 0.0021	-0.0075 ± 0.0035	-0.008 ± 0.0028	-0.0005 ± 0.00071	-0.0015 ± 0.0035	0.0015 ± 0.0035	-0.0015 ± 0.005	-0.0065 ± 0.005	0.008 ± 0.018	0.0085 ± 0.015	-0.0095 ± 0.012	-0.0145 ± 0.0064	-0.0305 ± 0.0021
MyoF:Collagen III	-0.021 ± 0.0014	-0.0335 ± 0.00071	-0.064 ± 0.011	-0.0045 ± 0.011	-0.0205 ± 0.021	0.003 ± 0.02	-0.006 ± 0.0071	0.0015 ± 0.015	0.008 ± 0.0057	-0.011 ± 0.038	0.007 ± 0.042	0.0245 ± 0.032	-0.008 ± 0.021	0.0155 ± 0.00071	0.006	-0.008 ± 0.013	-0.016	-0.005 ± 0.0028
KF3CT:uPA	0.027 ± 0.02	0.0275 ± 0.028	0.0325 ± 0.0021	0.001 ± 0.0071	-0.0145 ± 0.028	-0.004 ± 0.023	-0.0065 ± 0.005	-0.0175 ± 0.019	-0.0055 ± 0.011	-0.0105 ± 0.039	-0.0185 ± 0.0021	0.017 ± 0.027	0.01	0.0045 ± 0.021	0.0075 ± 0.005	0.0085 ± 0.0078	-0.017 ± 0.02	-0.0115 ± 0.011
KF3CT:PAI-I	0.004 ± 0.013	0.002 ± 0.013	-0.0055 ± 0.018	-0.0035 ± 0.00071	-0.0165 ± 0.0092	0.003 ± 0.0071	-0.0015 ± 0.005	-0.0115 ± 0.011	-0.004 ± 0.018	-0.0355 ± 0.012	-0.073 ± 0.027	0.041 ± 0.035	-0.0025 ± 0.0035	-0.018 ± 0.0071	0.006 ± 0.0099	-0.004 ± 0.0085	-0.008 ± 0.0071	-0.0155 ± 0.0021
MyoF:bFGF	0.0125 ± 0.0064	0.0075 ± 0.019	0.0325 ± 0.019	0.005 ± 0.025	0.002 ± 0.023	0.0155 ± 0.015	0.001 ± 0.0042	0.0015 ± 0.012	0.015 ± 0.0042	-0.0015 ± 0.013	-0.0025 ± 0.015	0.004 ± 0.044	-0.014 ± 0.0028	-0.0045 ± 0.0035	0.0075 ± 0.005	0.009 ± 0.014	0.0145 ± 0.0021	0.014 ± 0.014
HDF3CGF:MMP-1	-0.015 ± 0.0014	-0.013 ± 0.017	-0.001 ± 0.0099	0.0015 ± 0.015	-0.0075 ± 0.029	-0.0145 ± 0.054	-0.0015 ± 0.015	-0.015 ± 0.0028	-0.0235 ± 0.0021	-0.025 ± 0.0057	-0.0075 ± 0.011	0.0035 ± 0.0035	0.029 ± 0.018	0.023 ± 0.0028	-0.0075 ± 0.0021	0.0005 ± 0.013	-0.0025 ± 0.013	0.008 ± 0.0071
BE3C:MMP-1	-0.066 ± 0.0099	-0.0425 ± 0.005	0.0305 ± 0.073	0.0065 ± 0.035	0.0105 ± 0.059	0.006 ± 0.045	0.0115 ± 0.012	-0.009 ± 0.041	0.029 ± 0.095	-0.023 ± 0.078	-0.023 ± 0.058	0.0145 ± 0.0064	-0.0135 ± 0.00071	-0.0175 ± 0.018	0.0135 ± 0.022	0.0125 ± 0.012	-0.0055 ± 0.013	0.0425 ± 0.056
lMphg:M-CSF	-0.033 ± 0.0071	-0.021 ± 0.021	-0.0325 ± 0.022	-0.0115 ± 0.043	-0.0135 ± 0.032	-0.0165 ± 0.019	-0.0095 ± 0.0078	-0.019 ± 0.011	-0.0115 ± 0.0064	-0.021 ± 0.017	-0.003 ± 0.018	-0.0025 ± 0.039	-0.0095 ± 0.00071	-0.0065 ± 0.022	0.0145 ± 0.021	-0.015 ± 0.013	-0.013 ± 0.016	0.013 ± 0.067
MyoF:MMP-1	-0.0075 ± 0.0092	-0.0445 ± 0.0078	-0.0085 ± 0.093	0.0125 ± 0.013	-0.0265 ± 0.00071	0 ± 0.011	-0.0165 ± 0.0078	-0.0245 ± 0.026	0.0205 ± 0.06	-0.0345 ± 0.04	-0.026 ± 0.027	0.0215 ± 0.0064	-0.048 ± 0.0014	-0.0475 ± 0.012	-0.03 ± 0.027	-0.02 ± 0.031	-0.0145 ± 0.022	0.028 ± 0.12
CASM3C:IL-6	-0.097 ± 0.045	-0.148 ± 0.0071	-0.189 ± 0.026	-0.02 ± 0.0014	-0.0225 ± 0.005	0.009 ± 0.061	-0.0215 ± 0.015	-0.0205 ± 0.016	-0.001 ± 0.031	-0.0195 ± 0.005	-0.023 ± 0.0099	-0.016 ± 0.054	-0.016 ± 0.048	-0.0155 ± 0.043	-0.0125 ± 0.018	-0.014 ± 0.0014	-0.02 ± 0.0099	-0.0005 ± 0.04
HDF3CGF:SRB	-0.014 ± 0.028	0.0125 ± 0.021	-0.022 ± 0.02	-0.0385 ± 0.07	-0.0245 ± 0.042	0.045 ± 0.041	0.006 ± 0.0071	0.011 ± 0.047	0.0125 ± 0.04	-0.0105 ± 0.015	-0.022 ± 0.0028	0.011 ± 0.013	-0.009 ± 0.023	0.0075 ± 0.011	0.027 ± 0.0071	-0.043 ± 0.052	-0.0135 ± 0.056	-0.0405 ± 0.1
MyoF:Decorin	-0.0275 ± 0.0021	-0.043 ± 0.024	-0.057 ± 0.045	-0.0215 ± 0.025	-0.015 ± 0.044	-0.001 ± 0.04	-0.024 ± 0.041	0.0175 ± 0.079	-0.0075 ± 0.063	-0.0155 ± 0.066	0.003 ± 0.028	0.0645 ± 0.026	0 ± 0.013	-0.0065 ± 0.013	0.012	-0.006 ± 0.0085	0.0195 ± 0.013	0.0325 ± 0.016
BE3C:PAI-I	-0.043 ± 0.0042	-0.0315 ± 0.005	-0.0085 ± 0.032	0.009 ± 0.018	-0.004 ± 0.018	0.006 ± 0.061	-0.005 ± 0.0085	-0.001 ± 0.025	-0.0005 ± 0.0021	-0.0355 ± 0.023	-0.03 ± 0.045	0.0365 ± 0.016	-0.0265 ± 0.036	-0.0315 ± 0.022	0.006 ± 0.064	0.025 ± 0.024	0.031 ± 0.0099	0.0325 ± 0.011
lMphg:CD69	-0.069 ± 0.024	-0.0915 ± 0.0078	-0.0275 ± 0.067	0.015 ± 0.0071	0 ± 0.027	-0.021 ± 0.0042	-0.0165 ± 0.047	-0.0145 ± 0.071	0.005 ± 0.099	0.0115 ± 0.07	0.007 ± 0.041	0.0155 ± 0.0035	-0.02 ± 0.0099	-0.017 ± 0.0042	-0.008 ± 0.0014	-0.0165 ± 0.036	-0.024 ± 0.025	0.001 ± 0.038

From the supplement of paper PMC10331698
